The results in this text go back to US11969490B2, “Hair conditioning composition with antimicrobial system” (The Procter & Gamble Company, priority 2020, dated 2024).

The nature of the data set: Rheology Test Method (shear stress at 950 s^−1 via flow curve). Format: physicochemical. The method, then: 2. Rheology Test Method Rheology is used to evaluate and characterise product samples. The two key rheology methods identified are mentioned below: • Shear Stress at 950 s^−1 via flow curve: This is the method to ramp up shear rate logarithmically from 0.1 to 1000 s^−1 in 1 min using a cone & plate geometry, and to read the shear stress value 6 (Pa) at shear rate 950 s^−1. • Delta in Rheology %: This is the percentage difference in rheology measurement following the formula below: Delta in Rheology %=((a−b)/b)×100% • where a is the post added product and b is the no post added product. If rheology reduction is more than 50%, it would indicate significant interaction with chassis and incompatible.

As for `CC(=O)c1ccc(O)cc1` [4-Hydroxyacetophenone], the “rheology reduction / compatibility with formulation, in words” value (from here on “rheology reduction / compatibility”) is reported as “no significant rheology reduction”.

Turning to `CCCCCCCC(=O)OCC(O)CO` (stereo not shown) [Glyceryl caprylate], the “rheology reduction / compatibility” value was “no significant rheology reduction”.

As for `O=C([O-])c1ccccc1.[Na+]` [Sodium benzoate, reference compound], the “rheology reduction / compatibility” value is reported as “significant rheology reduction”.

Take Pentylene Glycol: the “rheology reduction / compatibility” value is recorded as “no significant rheology reduction”.
